# Assay results taken from US6737058B2, “Methods for inhibiting endothelial cell and fibrinogen mediated inflammation using fibrinogen specific antibodies” (The Scripps Research Institute, priority 1992, dated 2004).
# Legend:
# [1] = tested on: bovine aortic endothelial cells (BAE); test: Fibrinogen-mediated adhesion of 51Cr-labelled THP-1 cells to bovine aortic endothelial cells; assay type: cell-based; conditions: 500 μg/ml fibrinogen
# Protocol: Cell adhesion binding assays described above were performed on bovine aortic endothelial cells (BAE) to determine if fibrinogen could mediate the binding of ^51Cr-labelled THP-1 cells to endothelial cells from a different source. Cell cultures were prepared from bovine aorta following procedures known to one skilled in the art. THP-1 cells were either left untreated or treated with 500 μg/ml fibrinogen over a 60 minute time course. At selected time points, the cells were harvested as described in Example 3B1) and the number of attached THP-1 cells were determined as previously described. […] However, in the presence of fibrinogen, approximately 20,000 cells bound to BAE cells after a 40 minute maintenance period. This maximum binding dropped off at 60 minutes to approximately 15,000 attached cells. Binding of THP-1 cells to HUVEC was done in parallel as a control for the experiment; the non-saturable binding of THP-1 cells in the presence of fibrinogen was maximal at 60 minutes with approximately 25,000 cells attached. Thus, fibrinogen mediates the binding of THP-1 cells not only to human endothelial cells but also to bovine-derived endothelial cells.
# HUVEC [2] = test: Inhibition of 125I-labelled fibrinogen binding to HUVEC by cold fibrinogen, anti-VNR antibodies and RGD/RGE peptides; parameters: species or system human
# Protocol: Binding of ^125I-labelled fibrinogen binding to HUVEC assays were performed in the presence of 50 molar excess of unlabelled fibrinogen in order to confirm the specificity of binding as shown in Example 3A. The binding assay was performed as described in Example 3A with the exception that unlabelled fibrinogen was admixed to HUVEC at a 50 molar excess (approximately […] fibrinogen) concurrently with 50 μg/ml of ^125I-labelled fibrinogen. The protein-cell admixtures were maintained at 22° C. for 30 minutes to allow for binding of fibrinogen to HUVEC. In addition to cold fibrinogen, a 50 fold molar excess of BSA was separately admixed as a control. The amount of fibrinogen bound under the above conditions was quantitated as described in Example 3A. The uninhibited total binding of ^125I-labelled fibrinogen saturated after 30 minutes at approximately 4000 cpm per well. […] The binding of fibrinogen to the HUVEC surface fibrinogen receptor is therefore specific.
# The specificity of binding to an RGD-independent fibrinogen receptor was confirmed in competition assays performed as described above in the presence of monoclonal antibodies against the beta subunit of the RGD-dependent VNR and in the presence of RGD-containing peptides. For the assays in which the ability of anti-VNR monoclonal antibodies, designated mAb 609 and mAb 7E3, to inhibit the binding of ^125I-labelled fibrinogen to HUVEC, the antibodies were separately maintained at a concentration of 25 μg/ml with HUVEC for 20 minutes at 37° C. After the maintenance period, the antibody-treated HUVEC were washed once with serum-free RPMI 1640 to remove any unbound antibody. Labelled fibrinogen was then admixed to the treated HUVEC at a concentration of 50 μg/ml in the presence of 2.5 mM CaCl2 and […] PPack. The resultant admixtures were maintained for 10-30 minutes at 22° C. The fibrinogen-treated HUVEC were then washed, solubilized and counted as described in Example 3A.
# To confirm that the fibrinogen binding site on HUVEC was not RGD dependent, inhibition assays performed as described above for inhibiting with antibodies except that they were done in the presence of 1.0 mM of an RGD-containing peptide. A control RGE-containing peptide was also included in the assay. At selected time points over the time course of one hour, the HUVEC were harvested as described in Example 3A.
# HUVEC [3] = test: 125I-labelled fibrinogen binding to HUVEC monolayers, dose dependency; parameters: species or system human; conditions: monolayers of unstimulated HUVEC, 22° C., 45 minutes, 2.5 mM CaCl2
# Protocol: Fibrinogen was iodinated using the Iodogen™ method. Briefly, Iodogen™ was dissolved in dichloromethane for a final concentration of 1 μg/ml and 170 μl of dissolved Iodogen™ that was dried in the bottom of a glass tube. Fibrinogen, prepared in Example 1A, was resuspended in 0.055 M sodium citrate buffer, pH 7.4, for a final concentration of 5 μg/ml. Two hundred μl of dissolved fibrinogen solution was placed into the Iodogen™-coated tube with 700 μCi of carrier-free sodium iodide. The admixture was maintained on ice for 20 minutes with occasional agitation. To stop the iodination reaction, the admixture was removed from the tube and gel filtered on a […]™ G-25 coarse column (100×2.5). Fractions of iodinated fibrinogen were determined by trichloroacetic acid precipitable counts. The labelled fibrinogen produced was radiolabelled to a specific activity of 0.3 μCi/μg of protein. Labelled fibrinogen was used in the binding and inhibition of binding assays described herein at a concentration of 50 μg/ml whereas unlabelled fibrinogen was generally used at a concentration of 500 μg/ml. […]
# The resultant admixtures were maintained at 22° C. for 45 minutes to allow for fibrinogen to bind to the plated HUVEC. […] The cells were then solubilized in 10% SDS and the radioactivity associated under the maintenance conditions was quantitated in a gamma counter.
substance,measurement,setting,value
"fibrinogen: fibrinogen isolated from fresh plasma by cold ethanol fractionation, fibronectin-free",THP-1 cells bound to BAE cells,[1]; 40 minutes,"approximately 20,000 cells"
same,THP-1 cells bound to BAE cells,[1]; 60 minutes,"approximately 15,000 cells"
same,uninhibited total binding of 125I-labelled fibrinogen at saturation,"HUVEC [2]; 50 μg/ml, after 30 minutes, 22° C.",approximately 4000 cpm per well
same,inhibition of 125I-labelled fibrinogen binding to HUVEC,"HUVEC [2]; 50 molar excess of unlabelled protein, 50 μg/ml labelled fibrinogen, 22° C., 30 minutes",half that of the total uninhibited binding
same,inhibition of 125I-labelled fibrinogen binding to HUVEC (FIG. 7),"HUVEC [2]; cold fibrinogen in 50 molar excess, 10-30 minutes",almost completely inhibited
same,inhibition of 125I-labelled fibrinogen binding to HUVEC (FIG. 8),"HUVEC [2]; cold fibrinogen, time course of one hour",completely inhibited
same,concentration at which 125I-labelled fibrinogen binds saturably,HUVEC [3],approximately 0.36 μM
